Reference: patent publication US20250009737A1, “COMPOUNDS AND METHODS FOR THE TARGETED DEGRADATION OF ANDROGEN RECEPTOR” (Arvinas Operations, Inc., priority 2023, published 2025)
Where two headings read alike, the source gives them in different places.

How the values were obtained:
Type in all cases: in vitro ADME
[1] = test system: CYP1A2 mRNA; assay: CYP1A2 mRNA induction in cryopreserved human hepatocytes; conditions: 0.03-30 μM; for CYP1A2 mRNA Fold induction: human hepatocytes, 48 hours
Protocol: (§1) The induction potential of Compound A on CYP enzymes was assessed in cryopreserved human hepatocytes from three donors. Following treatment for with Compound A at concentrations of 0.03-30 μM for 48 hours, mRNA levels for CYP1A2, 2B6, 2C8, 2C9, 2C19, and 3A4 were determined by semiquantitative real-time polymerase chain reaction (PCR). Test article concentrations during 24-hour incubation were determined. The potential of Compound A to cause direct and time-dependent inhibition (TDI) of the activities of CYP1A2, 2B6, 2C8, 2C9, 2C19, 2D6, and 3A4 was evaluated in pooled human liver microsomes (HLM) at 0.2-15 μM. Probe substrate concentrations around Km were used for direction inhibition and initial TDI assays. For TDI assay, Compound A was pre-incubated with pooled HLM with and without NADPH for 30 minutes prior to incubation with a single concentration of probe substrate.

[2] = test system: CYP2C9 mRNA; assay: CYP2C9 mRNA induction in cryopreserved human hepatocytes; conditions: 0.03-30 μM; for CYP2C9 mRNA Fold induction: human hepatocytes, 48 hours
[3] = test system: CYP2C19 mRNA; assay: CYP2C19 mRNA induction in cryopreserved human hepatocytes; conditions: 48 hours
[4] = molecular target: T1, CYP2D6 (Homo sapiens, UniProt P10635); assay: Direct and time-dependent CYP2D6 inhibition in pooled human liver microsomes; conditions: pooled HLM, substrate Bufuralol 5 μM
T1 construct: evaluated in pooled human liver microsomes (HLM); from tissue; host or cells: pooled human liver microsomes
T1 sequence (P10635 whole entry): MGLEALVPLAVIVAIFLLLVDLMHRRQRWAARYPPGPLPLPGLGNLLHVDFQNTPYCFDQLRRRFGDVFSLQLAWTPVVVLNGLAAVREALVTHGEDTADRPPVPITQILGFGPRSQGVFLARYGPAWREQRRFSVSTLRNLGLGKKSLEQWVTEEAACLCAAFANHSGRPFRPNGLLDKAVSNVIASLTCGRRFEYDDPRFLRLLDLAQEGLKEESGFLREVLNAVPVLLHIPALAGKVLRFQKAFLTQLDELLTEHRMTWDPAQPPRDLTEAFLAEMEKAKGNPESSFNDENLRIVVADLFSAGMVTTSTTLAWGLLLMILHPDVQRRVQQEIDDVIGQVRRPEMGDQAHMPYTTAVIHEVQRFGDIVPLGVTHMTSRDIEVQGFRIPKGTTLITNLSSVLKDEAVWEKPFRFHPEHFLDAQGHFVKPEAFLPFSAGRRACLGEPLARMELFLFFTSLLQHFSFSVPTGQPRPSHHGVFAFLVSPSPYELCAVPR
Protocol: as §1

[5] = molecular target: CYP3A (Homo sapiens, UniProt P08684); assay: Direct and time-dependent CYP3A inhibition in pooled human liver microsomes; conditions: pooled HLM, read-out: IC50, No Pre-incubation
Sequence of CYP3A (P08684 2-503): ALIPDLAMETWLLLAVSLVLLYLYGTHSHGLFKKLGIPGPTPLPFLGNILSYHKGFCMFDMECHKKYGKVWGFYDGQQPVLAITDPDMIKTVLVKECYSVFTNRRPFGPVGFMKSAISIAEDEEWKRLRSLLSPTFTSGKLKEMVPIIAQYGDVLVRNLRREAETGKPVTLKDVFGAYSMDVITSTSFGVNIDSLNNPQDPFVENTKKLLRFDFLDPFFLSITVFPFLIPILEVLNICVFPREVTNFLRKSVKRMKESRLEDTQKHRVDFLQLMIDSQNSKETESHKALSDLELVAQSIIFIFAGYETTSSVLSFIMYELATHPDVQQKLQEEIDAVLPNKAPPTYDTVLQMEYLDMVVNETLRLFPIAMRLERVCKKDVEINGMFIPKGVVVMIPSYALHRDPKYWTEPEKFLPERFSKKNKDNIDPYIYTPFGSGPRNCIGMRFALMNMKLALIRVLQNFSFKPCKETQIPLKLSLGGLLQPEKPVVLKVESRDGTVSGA
Protocol: as §1

[6] = test system: CYP1A2, 2B6, 2C8, 2C9, 2C19, 2D6, and 3A4; assay: Direct and time-dependent inhibition of all CYPs tested in pooled human liver microsomes; conditions: HLM
Protocol: as §1

[7] = Metabolite profiling / stability in human hepatocyte suspension
Protocol: Metabolite profiling was conducted in incubations of Compound A (2 and 10 μM) with HLM (up to 60 min), human hepatocyte suspension (up to 240 min) and human plasma (up to 360 min). In addition, Compound A (2 μM) was incubated with recombinant human CYP enzymes CYP1A2, CYP2A6, CYP2B6, CYP2C8, CYP2C9, CYP2C19, CYP2D6, CYP2E1, CYP3A4 and CYP3A5.
The DDI potential of Compound A as a victim via CYP mediated pathways was examined in HLM, human hepatocyte suspensions, and human recombinant CYP enzymes.

[8] = molecular target: T2, MATE2-K (Homo sapiens, UniProt Q86VL8); assay: MATE2-K uptake transporter inhibition in MDCKII or HEK293 cells; conditions: substrate Metformin (10 μM)
T2 construct: expressed in transfected cells; host or cells: MDCKII or HEK293
T2 sequence (Q86VL8 1-566 isoform Q86VL8-3): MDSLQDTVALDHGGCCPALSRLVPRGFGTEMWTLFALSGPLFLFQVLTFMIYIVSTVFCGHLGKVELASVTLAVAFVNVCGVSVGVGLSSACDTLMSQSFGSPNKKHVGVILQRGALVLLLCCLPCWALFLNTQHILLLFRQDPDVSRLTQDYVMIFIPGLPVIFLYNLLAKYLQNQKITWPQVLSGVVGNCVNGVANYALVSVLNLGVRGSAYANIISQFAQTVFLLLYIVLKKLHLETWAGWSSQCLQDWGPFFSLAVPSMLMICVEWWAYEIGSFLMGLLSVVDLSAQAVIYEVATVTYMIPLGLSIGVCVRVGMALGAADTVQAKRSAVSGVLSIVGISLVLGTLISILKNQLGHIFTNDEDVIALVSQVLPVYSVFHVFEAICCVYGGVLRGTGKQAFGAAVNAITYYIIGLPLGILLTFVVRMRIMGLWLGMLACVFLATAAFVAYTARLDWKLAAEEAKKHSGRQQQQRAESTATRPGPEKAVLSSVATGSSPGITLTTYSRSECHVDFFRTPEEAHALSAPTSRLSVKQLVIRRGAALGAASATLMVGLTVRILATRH
Protocol: (§2) In addition, the inhibition potential against efflux transporters (P-glycoprotein (Pgp) and breast cancer resistance protein (BCRP)) and uptake transporters (MATE1, MATE2-K, OATP1B1, OATP1B3, OAT1, OAT3, and OCT2) was assessed using single transporter over-expressed cell monolayers (MDCK II or HEK293) or inside-out vesicles.
(§3) The potential of Compound A to inhibit Pgp or BCRP was tested for bidirectional transport of the probe substrates in Pgp or BCRP-expressed MDCKII and control monolayers at Compound A concentrations of 0.07-5 μM. Pgp and BCR inhibition were tested in inside-out membrane vesicles prepared from HEK293 overexpressing human Pgp and BCR at concentrations of 0.01-9 μM Compound A in the presence of 4 mM MgATP or MgAMP.

[9] = molecular target: Pgp (Homo sapiens, UniProt P08183); assay: Pgp inhibition in inside-out membrane vesicles from HEK293; set-up: expressed in transfected cells; host or cells: HEK293 (inside-out membrane vesicles)
Sequence of Pgp (P08183 whole entry): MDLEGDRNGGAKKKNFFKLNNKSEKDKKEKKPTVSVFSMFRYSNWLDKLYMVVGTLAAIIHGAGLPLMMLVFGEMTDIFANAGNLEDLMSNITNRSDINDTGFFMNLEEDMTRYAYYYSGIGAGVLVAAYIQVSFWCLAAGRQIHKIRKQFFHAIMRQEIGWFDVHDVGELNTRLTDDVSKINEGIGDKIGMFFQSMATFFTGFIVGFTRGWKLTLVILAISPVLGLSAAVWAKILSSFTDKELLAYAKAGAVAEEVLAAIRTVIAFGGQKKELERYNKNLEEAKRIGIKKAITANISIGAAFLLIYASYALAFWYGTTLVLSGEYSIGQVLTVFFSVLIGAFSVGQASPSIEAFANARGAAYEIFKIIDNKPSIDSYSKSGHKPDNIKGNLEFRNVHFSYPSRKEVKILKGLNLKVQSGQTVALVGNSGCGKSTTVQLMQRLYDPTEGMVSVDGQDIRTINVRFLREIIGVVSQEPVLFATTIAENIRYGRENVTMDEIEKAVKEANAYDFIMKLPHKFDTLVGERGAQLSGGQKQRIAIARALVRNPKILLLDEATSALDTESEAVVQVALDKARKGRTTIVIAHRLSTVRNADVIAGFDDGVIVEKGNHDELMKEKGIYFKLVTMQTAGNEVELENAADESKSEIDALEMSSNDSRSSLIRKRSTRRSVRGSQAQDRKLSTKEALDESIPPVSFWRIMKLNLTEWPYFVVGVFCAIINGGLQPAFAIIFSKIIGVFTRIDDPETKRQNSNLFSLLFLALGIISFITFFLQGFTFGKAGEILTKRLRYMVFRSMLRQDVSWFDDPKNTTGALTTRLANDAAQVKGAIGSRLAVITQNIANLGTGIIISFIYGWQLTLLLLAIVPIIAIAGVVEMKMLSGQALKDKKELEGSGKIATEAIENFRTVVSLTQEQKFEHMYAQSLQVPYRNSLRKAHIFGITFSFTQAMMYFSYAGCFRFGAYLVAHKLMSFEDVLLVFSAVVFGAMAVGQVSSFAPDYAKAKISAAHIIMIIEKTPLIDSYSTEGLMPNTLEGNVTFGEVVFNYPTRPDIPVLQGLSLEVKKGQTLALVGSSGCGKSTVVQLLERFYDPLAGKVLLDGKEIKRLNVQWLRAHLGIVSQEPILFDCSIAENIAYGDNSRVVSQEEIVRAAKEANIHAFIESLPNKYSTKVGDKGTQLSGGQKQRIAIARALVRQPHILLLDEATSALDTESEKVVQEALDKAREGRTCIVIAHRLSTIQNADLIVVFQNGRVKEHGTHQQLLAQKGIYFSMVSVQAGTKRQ
Protocol: as §2, §3

[10] = molecular target: T3, BCRP (Homo sapiens, UniProt Q9UNQ0); assay: BCRP inhibition in inside-out membrane vesicles from HEK293; set-up: expressed in transfected cells; host or cells: HEK293 (inside-out membrane vesicles); conditions: substrate Rosuvastatin (1 μM)
T3 sequence (Q9UNQ0 1-655): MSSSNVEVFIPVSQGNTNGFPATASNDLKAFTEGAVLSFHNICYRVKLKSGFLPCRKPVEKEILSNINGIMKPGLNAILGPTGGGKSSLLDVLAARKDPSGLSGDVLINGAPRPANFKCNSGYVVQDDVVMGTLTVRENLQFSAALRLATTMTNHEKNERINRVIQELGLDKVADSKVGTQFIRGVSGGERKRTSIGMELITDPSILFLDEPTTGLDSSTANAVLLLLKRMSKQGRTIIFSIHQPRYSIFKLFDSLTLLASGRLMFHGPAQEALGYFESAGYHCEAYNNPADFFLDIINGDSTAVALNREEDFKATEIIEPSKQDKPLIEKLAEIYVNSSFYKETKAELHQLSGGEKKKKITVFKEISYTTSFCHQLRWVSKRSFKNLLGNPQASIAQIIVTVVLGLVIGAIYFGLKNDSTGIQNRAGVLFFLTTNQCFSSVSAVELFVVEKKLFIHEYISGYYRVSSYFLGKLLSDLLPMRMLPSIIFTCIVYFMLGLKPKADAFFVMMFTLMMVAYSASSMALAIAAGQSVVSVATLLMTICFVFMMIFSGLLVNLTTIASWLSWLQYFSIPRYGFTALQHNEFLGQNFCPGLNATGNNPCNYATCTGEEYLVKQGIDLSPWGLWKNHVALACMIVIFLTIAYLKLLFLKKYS
Protocol: as §2, §3

[11] = all three donors of human hepatocytes

Q: With COc1cc(O[C@H]2C(C)(C)[C@H](NC(=O)c3ccc(N4CCC(CN5CCN(c6ccc(C(=O)N[C@H]7CCC(=O)NC7=O)c(F)c6)CC5)CC4)cc3)C2(C)C)ccc1C#N [Compound A, 4-(4-((1-(4-(((1R,3R)-3-(4-cyano-3-methoxyphenoxy)-2,2,4,4-tetramethylcyclobutyl)carbamoyl)phenyl)piperidin-4-yl)methyl)piperazin-1-yl)-N—((S)-2,6-dioxopiperidin-3-yl)-2-fluorobenzamide] as the compound, how does the “CYP1A2 mRNA Fold induction” value ([1]; Donor 1) read?
A: The value was <2 Fold.

Q: What about the “CYP1A2 mRNA Fold induction” value ([1]; Donor 2) of the same compound?
A: Its value is <2 Fold.

Q: And the “CYP1A2 mRNA Fold induction” value ([1]; Donor 3)?
A: The value was <2 Fold.

Q: What about the “Induction of CYP1A2 mRNA” value [1, 11] of the same compound?
A: Its value is “did not induce”.

Q: What about the “CYP2C9 mRNA Fold induction” value ([2]; Donor 1) of the same compound?
A: Its value is <2 Fold.

Q: And the “CYP2C9 mRNA Fold induction” value ([2]; Donor 2)?
A: Its value is <2 Fold.

Q: And the “CYP2C9 mRNA Fold induction” value ([2]; Donor 3)?
A: Its value is <2 Fold.

Q: And the “Induction of CYP2C9 mRNA” value [2, 11]?
A: Its value is “did not induce”.

Q: What about the “CYP2C19 mRNA Fold induction” value ([3]; Donor 1, 0.03-30 μM) of the same compound?
A: The value was <2 Fold.

Q: And the “CYP2C19 mRNA Fold induction” value ([3]; Donor 2, 0.03-30 μM)?
A: Its value is <2 Fold.

Q: And the “CYP2C19 mRNA Fold induction” value ([3]; Donor 3, 0.03-30 μM)?
A: Its value is <2 Fold.

Q: What about the IC50 ([4]; read-out: IC50, 30 min Pre-incubation) of the same compound?
A: The IC50 was > 15 µM.

Q: What about the IC50 ([4]; read-out: IC50, No Pre-incubation) of the same compound?
A: Its IC50 is > 15 µM.

Q: And the IC50 ([5]; probe midazolam (2 μM), substrate Midazolam 2 μM)?
A: The IC50 was > 15 µM.

Q: What about the IC50 ([5]; probe testosterone (50 μM), substrate Testosterone 50 μM) of the same compound?
A: Its IC50 is > 15 µM.

Q: What about the “Direct inhibition, maximal inhibition” value ([6]; all CYPs, up to 15 µM tested) of the same compound?
A: The value was ≤ 12%.

Q: And the “TDI (time-dependent inhibition)” value ([6]; all CYPs, up to 15 µM tested)?
A: The value was ≤ 15%.

Q: What about the “Direct or time-dependent inhibition” value ([6]; any of the CYP isoforms, 0.2-15 µM) of the same compound?
A: Its value is “no direct or time-dependent inhibition was observed”.

Q: And the “% Parent at 0 Min, HH at 240 min” value ([7]; human hepatocyte suspensions, 240 min)?
A: Its value is 86.9%.

Q: What about the “Stability in human hepatocyte suspension” value ([7]; up to 240 min) of the same compound?
A: The value was “relatively stable”.

Q: What about the IC50 [8] of the same compound?
A: Its IC50 is > 3.75 µM.

Q: What about the inhibition at 1 µM ([9]; human, probe NMQ (1 μM), Vesicles, substrate NMQ (1 μM), read-out: Maximal % Inhibition) of the same compound?
A: Its inhibition at 1 µM is 87%.

Q: And the IC50 ([9]; vesicle assays)?
A: The IC50 was 230 nM.

Q: And the inhibition at 1 µM ([10]; human, probe Rosuvastatin (1 μM), read-out: Maximal % Inhibition)?
A: Its inhibition at 1 µM is 95%.

Q: And the IC50 [10]?
A: The IC50 was 210 nM.
